The results in this text go back to patent publication US12629354B2, “Sustained-release pharmaceutical compositions comprising of a sedative drug and uses thereof” (TAIWAN LIPOSOME CO., LTD., priority 2018, dated 2026).

Broadly, the AUC(0-inf) is total exposure, with the tail of the curve extrapolated. High values mean high exposure, low ones low exposure. In general, AUC(0-t) refers to the area under the concentration-time curve up to a stated or last time point. By Cmax is commonly meant the maximum level reached in the sampled fluid or tissue. Usually half-life stands for the time in which the quantity being followed falls by half.

The conditions of data set [1]: plasma free dialysis bag, within 2 hours. As to the method: Two in vitro release systems were used in the study, the first system was the plasma free environment and the second system was the human plasma environment. […] Each dialysis bag was immersed in 20 mL of PBS at pH 7.4 in a 50-mL centrifuge tube and incubated at 37±1° C. water bath for 168 or 72 hours. At designated time points after incubation (1, 2, 4, 6, 24, 50, 72, 100 and 168 hours of first system and 1, 2, 4, 8, 24, 48 and 72 hours of second system), 1.0 mL aliquot from the 20-mL PBS was sampled and 1.0 mL of fresh PBS was added to replenish the sampling aliquot. Drug concentrations of the sampled aliquots at each time point were analyzed using HPLC to create the in vitro release profile of the tested formulations.

Data set [2] in a line: in vivo. As to conditions: rat. How it is done:
The rats were housed in a holding room which operated on a 12-hr light/12-hr dark circadian cycle with free access to water and food.
The rats were divided into two groups (n=4 in each group), one group received intramuscular (IM) injection of 100 μg/kg of free dexmedetomidine hydrochloride, prepared by dissolving the dexmedetomidine hydrochloride in 9.4% sucrose solution with a final concentration of 250 μg/mL. The other group received IM injection of 106 μg/kg of liposomal dexmedetomidine hydrochloride, prepared according to Example 1. Blood samples were collected at 15, 30 min, 1, 2, 4, 8, 24, 48, and 72 hours post-injection. Plasma samples were obtained by centrifugation, kept frozen at −80° C. and analyzed using liquid chromatography-tandem mass spectrometry. The plasma concentrations versus time curves were analyzed using a noncompartmental analysis model in PKSolver (Comput. Methods Programs Biomed. 2010; 99(3):306-314).

In data set [3] the test system is guinea pigs. The data set can be described thus: Pharmacodynamic study, pin prick test with L-DEX or saline injected intramuscularly at a distant site. As to conditions: 1.5 mg ropivacaine intracutaneous, IM saline or 2.0 μg/kg L-DEX outside the pin prick area. Type of data set: in vivo. How it is done:
Four guinea pigs were used in this study and was divided into two groups (Groups A and B). […] Each guinea pig in Group A and Group B received 4 intracutaneous injections on its back. Of the 4 intracutaneous injections, 2 injections delivered 1.5 mg of free ropivacaine each and the other two injections delivered 1.5 mg of liposomal ropivacaine composition each. The anesthetic effect of ropivacaine was assessed at 30 minutes (0.5 hour), 1.0, 1.5, 2.0, 2.5, 3.0, 3.5, 4.0, 5.0, 6.0, 7.0, 8.0 and 10 hours post-injection. The anesthetic effect was determined by observing the guinea pig's response to stimuli around individual wheals (i.e., pin prick test). PD data obtained from the pin prick tests was analyzed using an inhibitory effect sigmoid Emax model in PKSolver (Comput Methods Programs Biomed. 2010; 99(3):306-314).

Data set [4] relates to guinea pigs. The data set can be described thus: Pharmacodynamic study, pin prick test after intracutaneous injection of 4 formulations. In kind it is in vivo. As to conditions: 1.5 mg ropivacaine with or without 0.2 μg L-DEX in the same injection.
Procedure: The guinea pigs were housed in a holding room which operated on a 12-hr light/12-hr dark circadian cycle with free access to water and food.
Four guinea pigs were used in this study and each guinea pig received 4 intracutaneous injections of 4 different formulations on its back to create 4 individual wheals respectively (i.e., 4 wheals per formulation), as illustrated in FIG. 3A. […] Briefly, 339.0 mg of DMPC, 96.7 mg of cholesterol and 200.0 mg of ropivacaine were dissolved in 10 mL of tert-butanol and lyophilized. The lyophilized cake was hydrated with a 50 mM histidine solution, pH 6, to form multilamellar vesicles (MLVs) with entrapped ropivacaine (liposomal ropivacaine composition), and the concentration of ropivacaine was diluted to 15.0 mg/mL with 9.4% sucrose solution. The anesthesia effect of ropivacaine was assessed at 30 minutes (0.5 hour), 1.0, 1.5, 2.0, 2.5, 3.0, 3.5, 4.0, 5.0, 6.0, 7.0, 8.0, 10 and 24 hours post-injection. The anesthetic effect was determined by observing the guinea pig's response to stimuli around individual wheals (pin prick test). PD data obtained from the pin prick tests were analyzed using an inhibitory effect sigmoid Emax model in PKSolver (Comput Methods Programs Biomed. 2010; 99(3):306-314).
The mark [5] stands for this setting: female, Sprague-Dawley, im, 100 ug/kg.

Where a name gives a salt, the structure may show the parent alone.

Take `Cc1cccc([C@H](C)c2cnc[nH]2)c1C` [Free Dexmedetomidine, dexmedetomidine hydrochloride]: in data set [1], the dexmedetomidine released is recorded as around 100%. In data set [2] (setting [5]), the total exposure AUC(0-inf) amounted to 35.1 ng·h/mL, the AUC(0-t) worked out at 31.4 ng·h/mL, the Cmax was found to be 11 ng/mL and the half-life is 2.36 h. For the same compound, in data set [2] (female, Sprague-Dawley, im, 8 h), the “dexmedetomidine released as indicated by AUC0-t” value came to 100%. The “dexmedetomidine in the plasma of rats” value in data set [2] is given as “undetectable”.

For the compound `CCCN1CCCC[C@H]1C(=O)Nc1c(C)cccc1C` [Free Ropivacaine, ropivacaine hydrochloride monohydrate], in data set [3], the Non-response time is on record as 0.5 h and the TE50 stood at 1.6 h. Also, the “TE50 (time to half maximal effect)” value in data set [4] came to 4.5 h.
